Several values for one entry are separate records, joined by “and”; a condition that tells them apart may be missing. Identical values can stand only once. Toxic doses and inconclusive results are not listed. Cut-off read from the data, not from the text of the source: active = T/C of 150% or more; inactive = T/C below 125%. Peptide text beside a SMILES is read from it.
Tested on: L1210 leukemia ip in BDF1 mice, survival T/C
Assay: NCI In Vivo Anticancer Drug Screen. Data for tumor model L1210 Leukemia (intraperitoneal) in B6D2F1 (BDF1) mice
Conditions: endpoint: mean survival time, higher = longer survival
Procedure, shortened: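 Ratio derived from survival: compound-dosed mice over vehicle-dosed mice, all bearing a transplantable tumor.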

[1] = dose: 100.0 mg/kg/injection, schedule: Q04DX002 (ip), vehicle: Klucel (hydroxypropylcellulose) (HPC)
[2] = dose: 200.0 mg/kg/injection, schedule: Q04DX002 (ip), vehicle: Klucel (hydroxypropylcellulose) (HPC)
[3] = dose: 400.0 mg/kg/injection, schedule: Q04DX002 (ip), vehicle: Klucel (hydroxypropylcellulose) (HPC)
[4] = dose: 100.0 mg/kg/injection, schedule: Q04DX003 (ip), vehicle: Klucel (hydroxypropylcellulose) (HPC)
[5] = dose: 100.0 mg/kg/injection, schedule: Q01DX009 (ip), vehicle: saline
[6] = dose: 200.0 mg/kg/injection, schedule: Q01DX009 (ip), vehicle: saline
[7] = dose: 400.0 mg/kg/injection, schedule: Q01DX009 (ip), vehicle: saline
[8] = dose: 400.0 mg/kg/injection, schedule: Q04DX003 (ip), vehicle: Klucel (hydroxypropylcellulose) (HPC)
[9] = dose: 100.0 mg/kg/injection, schedule: Q01DX001 (ip), vehicle: saline
[10] = dose: 200.0 mg/kg/injection, schedule: Q01DX001 (ip), vehicle: saline
[11] = dose: 400.0 mg/kg/injection, schedule: Q01DX001 (ip), vehicle: saline
[12] = dose: 100.0 mg/kg/injection, schedule: Q01DX001 (ip), vehicle: other
[13] = dose: 200.0 mg/kg/injection, schedule: Q01DX001 (ip), vehicle: other
[14] = dose: 400.0 mg/kg/injection, schedule: Q01DX001 (ip), vehicle: other

Measured: T/C

CC[C@@H](O)C[C@H]1CCC[C@@]2(C[C@@H]3OC(=O)/C=C/[C@@](C)(O)[C@@H](O)[C@H](C)[C@@H](O)[C@H](OC4CCC(N(C)C)C(C)O4)[C@@H](O)[C@](C)(O)CCCCC/C=C/[C@@H]4CC(C)(C)O[C@@]4(O)C[C@H](O2)[C@H]3C)O1 (some centres undefined)
inactive: dose: 0.25 mg/kg/injection, schedule: Q04DX003 (ip), vehicle: saline 104 % of control | dose: 0.5 mg/kg/injection, schedule: Q04DX003 (ip), vehicle: saline 111 % of control | dose: 1.0 mg/kg/injection, schedule: Q04DX003 (ip), vehicle: saline 94 % of control | dose: 150.0 micrograms/kg/injection, schedule: Q01DX Z (sc), vehicle: steriod suspending solution 108 % of control | dose: 230.0 micrograms/kg/injection, schedule: Q01DX Z (sc), vehicle: steriod suspending solution 102 % of control | dose: 345.0 micrograms/kg/injection, schedule: Q01DX Z (sc), vehicle: steriod suspending solution 91 % of control

O=C(O)CCC1CCC(=O)NC1=O (centres undefined)
inactive: dose: 25.0 mg/kg/injection, schedule: Q04DX002 (ip), vehicle: Klucel (hydroxypropylcellulose) (HPC) 95 % of control | dose: 50.0 mg/kg/injection, schedule: Q04DX002 (ip), vehicle: Klucel (hydroxypropylcellulose) (HPC) 101 % of control | [1] 89 % of control | [2] 103 % of control | [3] 88 % of control

C=COP(OCCCC)OCCCC
inactive: dose: 25.0 mg/kg/injection, schedule: Q04DX002 (ip), vehicle: saline 94 % of control | dose: 50.0 mg/kg/injection, schedule: Q04DX002 (ip), vehicle: saline 91 % of control | dose: 100.0 mg/kg/injection, schedule: Q04DX002 (ip), vehicle: saline 93 % of control and 97 % of control | dose: 200.0 mg/kg/injection, schedule: Q04DX002 (ip), vehicle: saline 91 % of control | dose: 400.0 mg/kg/injection, schedule: Q04DX002 (ip), vehicle: saline 96 % of control

Nc1nc(N)nc(-c2cccc(Cl)c2)n1
inactive: dose: 25.0 mg/kg/injection, schedule: Q04DX003 (ip), vehicle: Klucel (hydroxypropylcellulose) (HPC) 107 % of control | dose: 50.0 mg/kg/injection, schedule: Q04DX003 (ip), vehicle: Klucel (hydroxypropylcellulose) (HPC) 101 % of control | [1] 111 % of control | [4] 102 % of control

CC1(c2cccc(Cl)c2)NC(=O)NC1=O (centres undefined)
inactive: [1] 112 % of control | [2] 105 % of control | [3] 108 % of control

CCCCCCCCCCCCC(=O)N(CCC)CCC
inactive: [1] 98 % of control | [2] 98 % of control | [3] 102 % of control

NC(CCC(=O)O)C(=O)NC(CO)C(=O)O (stereo not drawn) (H-Glu-Ser-OH; configuration not given here)
inactive: dose: 100.0 mg/kg/injection, schedule: Q01DX001 (ip), vehicle: saline with Tween-80 92 % of control | dose: 200.0 mg/kg/injection, schedule: Q01DX001 (ip), vehicle: saline with Tween-80 89 % of control

Cc1ccccc1-n1cccc1C(=O)O
inactive: [1] 89 % of control | [2] 96 % of control | [3] 86 % of control

Cc1ccc(S(=O)(=O)N2CCc3ccccc3C(=O)C2Br)cc1 (centres undefined)
inactive: [5] 97 % of control | [6] 94 % of control | [7] 86 % of control

[Cl][Pt+2][Cl].c1ccc(C2CC[N-]CC2)cc1.c1ccc(C2CC[N-]CC2)cc1
inactive: dose: 6.25 mg/kg/injection, schedule: Q04DX003 (ip), vehicle: water 100 % of control | dose: 12.5 mg/kg/injection, schedule: Q04DX003 (ip), vehicle: water 100 % of control | dose: 25.0 mg/kg/injection, schedule: Q04DX003 (ip), vehicle: water 105 % of control | dose: 50.0 mg/kg/injection, schedule: Q04DX003 (ip), vehicle: water 102 % of control

CCCCCN(CCCCC)CCC(=O)c1ccc2cc(Br)c3ccccc3c2c1
inactive: dose: 13.3 mg/kg/injection, schedule: Q01DX Z (ip), vehicle: methylcellulose (MC) 91 % of control | dose: 20.0 mg/kg/injection, schedule: Q01DX Z (ip), vehicle: methylcellulose (MC) 92 % of control | dose: 30.0 mg/kg/injection, schedule: Q01DX Z (ip), vehicle: methylcellulose (MC) 92 % of control

O/N=C\CC/C=N\O
inactive: [4] 105 % of control | dose: 200.0 mg/kg/injection, schedule: Q04DX003 (ip), vehicle: Klucel (hydroxypropylcellulose) (HPC) 98 % of control | [8] 100 % of control

OCCN(Cc1ccccc1)Cc1ccccc1
inactive: dose: 100.0 mg/kg/injection, schedule: Q04DX003 (ip), vehicle: saline with Tween-80 101 % of control | dose: 200.0 mg/kg/injection, schedule: Q04DX003 (ip), vehicle: saline with Tween-80 95 % of control

O=C(NC1CCC(C(=O)O)CC1)OCc1ccccc1 (centres undefined)
inactive: [9] 98 % of control | [5] 109 % of control | dose: 100.0 mg/kg/injection, schedule: Q04DX003 (ip), vehicle: acetone 96 % of control | [10] 102 % of control | [6] 100 % of control | dose: 200.0 mg/kg/injection, schedule: Q04DX003 (ip), vehicle: acetone 102 % of control | [11] 98 % of control | [7] 105 % of control | dose: 400.0 mg/kg/injection, schedule: Q04DX003 (ip), vehicle: acetone 98 % of control

Cc1ccnc2ccc3ccccc3c12
inactive: [12] 101 % of control | [13] 107 % of control | [14] 113 % of control

CP1CCC(O)(c2ccccc2)CC1 (centres undefined)
inactive: [1] 88 % of control | [2] 103 % of control | [3] 95 % of control

CCOc1ccc(/C=N\N=C\c2ccc(OCC)cc2)cc1
inactive: dose: 100.0 mg/kg/injection, schedule: Q01DX009 (ip), vehicle: Klucel (hydroxypropylcellulose) (HPC) 89 % of control | [4] 93 % of control | [8] 97 % of control

O=C(O)[C@@H]1C[C@H]1c1ccccc1
inactive: dose: 25.0 mg/kg/injection, schedule: Q04DX002 (ip), vehicle: saline + alcohol 100 % of control | dose: 50.0 mg/kg/injection, schedule: Q04DX002 (ip), vehicle: saline + alcohol 102 % of control | dose: 100.0 mg/kg/injection, schedule: Q01DX009 (ip), vehicle: saline with Tween-80 89 % of control | dose: 100.0 mg/kg/injection, schedule: Q04DX002 (ip), vehicle: saline + alcohol 109 % of control | dose: 100.0 mg/kg/injection, schedule: Q04DX002 (ip), vehicle: saline with Tween-80 114 % of control | dose: 200.0 mg/kg/injection, schedule: Q01DX009 (ip), vehicle: saline with Tween-80 87 % of control | dose: 400.0 mg/kg/injection, schedule: Q01DX009 (ip), vehicle: saline with Tween-80 92 % of control

Nc1ccc(SC(Sc2ccc(N)cc2)c2ccccc2)cc1
inactive: dose: 75.0 mg/kg/injection, schedule: Q01DX001 (ip), vehicle: other 105 % of control | dose: 75.0 mg/kg/injection, schedule: Q04DX003 (ip), vehicle: other 101 % of control | dose: 150.0 mg/kg/injection, schedule: Q01DX001 (ip), vehicle: other 107 % of control | dose: 150.0 mg/kg/injection, schedule: Q04DX003 (ip), vehicle: other 89 % of control | dose: 300.0 mg/kg/injection, schedule: Q01DX001 (ip), vehicle: other 100 % of control | dose: 300.0 mg/kg/injection, schedule: Q04DX003 (ip), vehicle: other 92 % of control

CCNS(=O)(=O)c1ncnc2nc[nH]c12
inactive: dose: 44.0 mg/kg/injection, schedule: Q01DX Z (ip), vehicle: carboxymethylcellulose (CMC) 117 % of control | dose: 44.0 mg/kg/injection, schedule: Q01DX Z (ip), vehicle: methylcellulose (MC) 98 % of control | dose: 66.0 mg/kg/injection, schedule: Q01DX Z (ip), vehicle: carboxymethylcellulose (CMC) 123 % of control | dose: 66.0 mg/kg/injection, schedule: Q01DX Z (ip), vehicle: methylcellulose (MC) 102 % of control | dose: 100.0 mg/kg/injection, schedule: Q01DX Z (ip), vehicle: methylcellulose (MC) 106 % of control | dose: 150.0 mg/kg/injection, schedule: Q01DX Z (ip), vehicle: methylcellulose (MC) 102 % of control

CC1(C)Oc2c(ccc(O)c2CN2CCCC2)C2=C1CCCC2
inactive: [9] 95 % of control | [10] 95 % of control | [11] 95 % of control

C(=N/N=C/c1cccnc1)/c1cccnc1
inactive: [12] 104 % of control | [13] 110 % of control | [14] 110 % of control

— PubChem BioAssay AID248 (DTP/NCI, 2004)
